Reference: patent US20140050754A1, “IMMUNOGENIC CHIKUNGUNYA VIRUS PEPTIDES” (priority 2010, published 2014)

What was measured:
[1] = tested on: E2EP3-specific IgG3 antibodies in pooled patients' plasma; assay: Affinity depletion of anti-E2EP3 antibodies, read by E2EP3 specific peptide-based ELISA; assay type: binding, human; conditions: pooled plasma median 10 days pio, relative to non-depleted samples
Description: (§1) For affinity depletion of human anti-E2EP3 antibodies, synthetic biotinylated E2EP3 peptide (EMC microcollections GmbH) was added at 450 ng/well to streptavidin-coated plates (Pierce) and incubated at room temperature for about 1 hour in PBS containing 0.1% Tween-20 (0.1% PBST). Human plasma samples were added and incubated for about 25 minutes at room temperature for absorption. The unbound portion was collected after 21 rounds of absorption. ELISA analysis was performed to verify the levels of the antibodies during affinity depletion.
Plasma samples (Median 10 days pio) were incubated with E2EP3 (K3, N5, K10), E2EP3 with double alanine substitution at lysine residues (K3A, N5, K10A) or triple alanine substitution at lysine and asparagine (K3A, N5A, K10A) peptides. E2EP3 specific peptide-based ELISA was performed to measure the depletion efficiency. Outputs were expressed as percentage control IgG3 titer from non-depleted samples. Data were presented as mean±SD. Examples were performed in triplicates.

[2] = tested on: anti-CHIKV IgG3 antibodies in pooled patients' plasma; assay: Affinity depletion of anti-E2EP3 antibodies, read by virion-based ELISA; assay type: binding, human; conditions: pooled plasma median 10 days pio, whole virus ELISA, relative to non-depleted samples
Description: […]; 50 μl/well). Wells were blocked with PBST-milk (PBS, 0.05% Tween 20, 5% non-fat milk) and plates were incubated for about 1.5 hours at about 37° C. Plasma samples were then diluted 1:500, 1:2000 in PBST-milk and incubated 1 hour at about 37° C. HRP-conjugated mouse anti-human IgG, IgG1, IgG2, IgG3, IgG4 and IgM (Molecular Probes) were used to detect human antibodies bound to virus-coated wells. Reactions were developed using TMB substrate (Sigma-Aldrich) and stopped with stopping reagent (Sigma-Aldrich). The absorbance was measured at 450 nm. Healthy donor samples were used as controls. ELISA determinations were done in duplicates and the values plotted as means±standard error means (SEM).
as §1
In FIG. 9(c), depleted samples as described in FIG. 9(b) were subjected to anti-CHIKV IgG3 antibodies detection. Virion-based ELISA was performed as described to measure the depletion efficiency. Outputs were expressed as percentage control IgG3 titer from non-depleted samples. Data were presented as mean±SD. Examples were performed in triplicates.

[3] = tested on: CHIKV (SGP11) infection of HEK 293T cells; assay: Affinity depletion of anti-E2EP3 antibodies, read by in vitro neutralization assay; assay type: cell-based, Chikungunya virus; conditions: plasma 1:500; about 20% with non-depleted plasma
Description: (§2) Neutralizing activity of CHIKV-infected patient samples were test in triplicates and were analyzed by immunofluorescence-based cell infection assay in HEK 293T cells, using Singapore strain CHIKV (SGP11). CHIKV were mixed at MOI 10 with diluted (1:100, 500 or 1,000) heat-inactivated human plasma and incubated for 2 hours at about 37° C. with gentle agitation (350 rpm). Virus-antibody mixtures were then added to HEK 293T cells seeded in 96-well plates and incubated for 1.5 hours at about 37° C. Virus inoculums (medium) were removed, and cells were replenished with DMEM medium supplied with 5% FBS and incubated for about 6 hours at about 37° C. before fixation with 4% paraformaldehyde followed by immunofluorescence quantification using the Cellomics ArrayScan V. The Cellomics ArrayScan. V was used as a complementary means of assessing neutralization capabilities of patients' plasma (same set-up as mentioned above), but involves an assessment endpoint at 6 hours post-infection (pi) to capture possible early protective responses against virus infection. Percentage infectivity was detected with High Content Screening and was calculated according to the equation: % Infectivity=100×(% responder from sero-neutralization group/% responder from virus infection group).
as §1
In FIG. 9(d), in vitro neutralizing activity of anti-E2EP3 antibodies against CHIKV-infected patients' plasma samples was observed. […] Outputs were expressed as percentage control infection. […]

[4] = tested on: CHIKV (SGP11) infection of HEK 293T cells; assay: Peptide blocking assay with human plasma followed by sero-neutralization assay; assay type: cell-based, Chikungunya virus; conditions: patients' plasma pools 1:500; 20% without peptide
Description: as §2, with “group). […]” for “group).”
Outputs were expressed as percentage control infection. […]

[5] = tested on: CHIKV infection of HEK 293T cells; assay: Peptide blocking assay with NHP plasma followed by in vitro neutralization assay; assay type: cell-based, Chikungunya virus; conditions: NHP plasma dilution series 1:100 to 1:3200, compared to untreated plasma
C57BL/6J mice = assay: KLH-E2EP3 vaccination of mice: E2EP3 specific peptide-based ELISA; assay type: in vivo; conditions: KLH-linked E2EP3 with CFA/IFA
Description: (§3) Lyophilized KLH-E2EP3 peptide was dissolved in DMSO (Sigma-Aldrich) to a working concentration of 5 mg/mL. Three-weeks old, female, C57BL/6J (sample size, n=7) were vaccinated subcutaneously in the abdominal flank with 100 μg of KLH-E2EP3 peptide prepared in 100 μl emulsion with 50% Complete Freund's Adjuvant (CFA) (Sigma-Aldrich) in PBS. Vaccinated mice were further boosted another two times at day 14 and day 21 with 50 μg of the peptide prepared in Incomplete Freund's Adjuvant (IFA) (Sigma-Aldrich). Control mice (n=7) were vaccinated with PBS/CFA and PBS/IFA on first vaccination and subsequent booster shots respectively. […] Viremia and degree of inflammation were monitored. […] Hind footpads of mice were measured daily using a vernier calliper from day 0 to day 14 post-infection. Measurements were done for the height (thickness) and the breadth of the foot and quantified as [height×breadth]. Degree of inflammation was expressed as relative increase in footpad size as compared to pre-infection with the following formula: [(day x−day 0)÷day 0] where x is the footpad measurements for each respective day post-infection.
Importantly, the sera obtained at 27 days post-vaccination were able to neutralize CHIKV-infection in vitro. In FIGS. 17(a) and 17(b), mouse anti-E2EP3 IgG antibodies were detected after the second and third vaccination. All outputs were expressed as mean±SD. […]

CHIKV infection in vitro = assay: In vitro neutralizing activity of E2EP3-vaccinated mouse sera; assay type: cell-based, Chikungunya virus; conditions: sera 27 days post-vaccination, dilution 1:100
Description: as §2, with “V was used as a complementary means of assessing neutralization capabilities of patients' plasma (same set-up as mentioned above), but involves an assessment endpoint at 6 hours post-infection (pi) to capture possible early protective responses against virus infection.” left out
Lyophilized KLH-E2EP3 peptide was dissolved in DMSO (Sigma-Aldrich) to a working concentration of 5 mg/mL. […] Viremia and degree of inflammation were monitored. […] Hind footpads of mice were measured daily using a vernier calliper from day 0 to day 14 post-infection. Measurements were done for the height (thickness) and the breadth of the foot and quantified as [height×breadth]. […]

CHIKV (SGP11) [6] = assay: CHIKV challenge of vaccinated mice: viremia by virus plaque assay; assay type: in vivo; conditions: 2 days post-challenge, challenge 30 days post-vaccination with 10^6 PFU s.c.; PBS control 4,500
Description: as §3
(§4) Mice were immunized with E2EP3 peptide complex to KLH or PBS Control emulsified with Complete Freund's Adjuvant (CFA) subcutaneously, and were boosted two more times with Incomplete Freund's Adjuvant (IFA). […] Outputs were expressed as percentage infection relative to PBS Control. […]

CHIKV (SGP11) [7] = assay: CHIKV challenge of vaccinated mice: footpad swelling (inflammation); assay type: in vivo; conditions: day 0 to day 14 post-challenge
Description: as §3, §4

Substance | E2EP3-specific IgG3 depleted from patients' plasma by surface-bound peptide [1] [%] | reduction of total anti-CHIKV IgG3 titer after depletion with peptide [2] [%] | virus infectivity (percentage control infection) with peptide-depleted plasma [3] | CHIKV infection (percentage control infection) after blocking with soluble E2EP3 peptide [4] [%] | effect of soluble peptide on neutralization by CHIKV-infected NHP plasma [5] | anti-E2EP3 IgG titer (C57BL/6J mice; 19 days post-vaccination, after 1st boost) | anti-E2EP3 IgG titer (C57BL/6J mice; 27 days post-vaccination, after 2nd boost) | reduction of infectivity compared to the PBS-vaccinated control group (CHIKV infection in vitro) | CHIKV viremia (CHIKV (SGP11) [6]) | maximal footpad swelling of PBS-vaccinated group relative to E2EP3-vaccinated group (CHIKV (SGP11) [7])
K3A/K10A (STADNFNVYAATRPYLAHC) | 30 | 40 | only a gradual decrease of the neutralizing efficacy |  |  |  |  |  |  | 
K3A/N5A/K10A (STADAFNVYAATRPYLAHC) | 15 | 20 | only a gradual decrease of the neutralizing efficacy |  |  |  |  |  |  | 
STKDNFNVYKATRPYLAHC [E2EP3] |  | ~80 | more than 50% | ~40 | abrogated the inhibitory effect of monkey plasma samples significantly | Significant anti-E2EP3 titer | further increased | approximately 40% | 2,000 pfu/mL | more than twice
